Data from patent US20240390377A1, “COMPOSITION FOR THE PREVENTION OR TREATMENT OF NEURODEGENERATIVE OR MOTOR NEURON DISEASES COMPRISING HALOFUGINONE AS AN ACTIVE INGREDIENT” (CURAMYS CO., LTD., priority 2022, published 2024).

How the values were obtained:
[1] = system: G93A mutant SOD1 transgenic mice; assay: Motor neuron cell count (ChAT) in lumbar spinal cord of ALS animal model; type: in vivo, mouse
Method: (§1) As a control group, non-transgenic mice were injected intraperitoneally (i.p.) with vehicle (DMSO) in the same manner for the same period of time.
Specifically, mice were sacrificed at various time points (90 days and 120 days) according to the clinical state of the mice of Example 6. Each mouse was transdermally perfused with cold 4% paraformaldehyde (PFA) following cold PBS, and lumbar spinal cord was separated. Samples were post-fixed in 4% paraformaldehyde, treated in a cold 30% sucrose solution, then freeze-protected, and then cross-sectional sections 14 μm thick were successively obtained. […] Motor neurons were quantified from ChAT-stained sections using a computer-assisted microscope (Olympus BX53) at 4× magnification, along with cellSens software. […] The fields analyzed were all ChAT+ profiles located in the ventral half of the immunostaining section clearly marked on the gray matter of each hemisphere.
In addition, to investigate the motor neuron source of the spinal cord, motor neurons of the lumbar spinal cord were observed and counted in the same manner as described in Example 9 (FIG. 9d), and real-time qRT-PCR and Western blot analysis were performed in the same manner as described in Example 11 and Example 12 to quantitatively analyze the expression of ChAT mRNA (FIG. 9e) and ChAT protein (FIG. 9f). […]

[2] = system: G93A mutant SOD1 transgenic mice; assay: Immunohistochemical analysis of knee joint synovial cavity in ALS animal model; type: in vivo, mouse
Method: as §1
Specifically, the mice of Example 6 above were perfused with 4% paraformaldehyde (PFA) on 90 and 120 days of age, and the lumbar spinal cord and knee joints were separated. After fixation in 4% PFA for 24 hours, the knee joints were rinsed in running tap water for 24 hours and then incubated at 4° C. with continuous shaking in decalcifying solution (Calci-Clear, HS-104, National Diagnostics). The decalcification solution was replaced daily with fresh solution until the bones were easily penetrated with a needle, indicating completion of the decalcification process. Subsequently, the decalcified knee joints were rinsed in running tap water for 24 hours, and the spinal cord and knee joint samples were treated with 30% sucrose until they sank, followed by freeze protection, followed by successive cuts (14 μm). The lumbar spinal cord and knee joint tissue sections were washed three times with PBS and permeabilized with 0.5% Triton X-100 for 5 minutes. Subsequently, they were blocked with 5% bovine serum albumin (BSA) in 0.3% PBS-T at room temperature for 1 hour. The knee joint tissue sections were incubated with anti-TGF-β1 antibody (1:200; Santa Cruz, cat #sc130348), anti-α-SMA antibody (1:200; Abcam, cat #ab7817), anti-MyoD antibody (1:200; Santa Cruz, cat #sc377460), and anti-Collagen I antibody (1:200; Abcam, cat #ab21286) each, while the lumbar spinal cord sections were incubated with anti-GFAP antibody (1:200; Dako, cat #Z0334), anti-Iba1 antibody (1:200; Wako, cat #016)-20001), anti-TGF-β1 antibody (1:200; Santa Cruz, cat #sc130348), anti-TGF-β1 antibody (1:200; Abcam, cat #ab92486), and anti-IL-1β antibody (1:200; R&D Systems, cat #AF-401-NA) at 4° C. for an additional 24 hours. After washing the sections three times with PBS, they were incubated with Alexa Fluor secondary antibodies in a dark chamber at room temperature for 1 hour. […] Furthermore, analysis was performed using Leica Application Suite X software (Leica Microsystems).
Specifically, halofuginone was administered to G93A mutant SOD1 mice from the early onset of ALS (day 73) in the same manner as described in Example 6. Immunohistochemical analysis was performed on the knee joints of early-stage female and male mice (90 days old, FIGS. 7a and 7b) and late-stage female and male mice (120 days old, FIGS. 7c and 7d) in the same manner as described in <Example 8>.

[3] = 90 days old (early stage), females and males, vs DMSO TG group
[4] = 120 days old (late stage), vs DMSO TG group

SMILES: O=C(C[C@H]1NCCC[C@@H]1O)Cn1cnc2cc(Br)c(Cl)cc2c1=O (racemic) [halofuginone]
- number of ChAT-positive motor neurons in lumbar spinal cord, compared with changes at 120 days ([1]; 90-day-old mice (FIG. 10b)): similar
- number of ChAT-positive motor neurons in lumbar spinal cord ([1]; 120-day-old mice, compared to DMSO Non-TG group (FIG. 9d)): preserved similarly
- increase in TGF-β in knee joint synovial cavity ([2]; 90 days old (early stage), females and males, 250 μg/kg i.p.): suppressed
- Col-I expression in knee joint synovial cavity [2, 3]: significantly lower
- α-SMA expression in knee joint synovial cavity [2, 3]: significantly lower
- Col-I in the synovial cavity [2, 4]: significantly lower
- MyoD in the synovial cavity [2, 4]: higher
- TGF-β1 in the synovial cavity [2, 4]: significantly lower
- α-SMA in the synovial cavity [2, 4]: significantly lower
- strength of TGF-β1, MyoD and Col-1 in the synovial cavity ([2]; 120 days old, female Hal TG group vs DMSO non-TG group): not different
- strength of MyoD in the synovial cavity ([2]; 120 days old, male Hal TG group vs DMSO non-TG group): slightly increased
